Experimental data published in patent publication US6124337A, “Methods and formulations for modulating the human sexual response” (priority 1999, dated 2000).
Structures can show the parent of a compound that is named as a salt.

Experiments:
[1] = system: impotentia erectionis; conditions: buccal, 100 I.U. three times a day for 14 days; cited from earlier work
[2] = system: male erectile ability; assay: Single blind trial of rapidly dissolving oral formulation on male erectile ability; assay type: in vivo, human; conditions: 40 mg dose
Experimental: In order to test the ability of a rapidly dissolving oral formulation of phentolamine mesylate on erectile ability, a single blind trial was conducted.
All patients had impotence of organic etiology. Patients were selected for inclusion in the trial based medical history and physical examination with a duration of impotence of less than 3-4 years. Each patient was given two tablets: a rapidly dissolving tablet containing 40 mg of phentolamine mesylate (see Table 1), and a placebo tablet lacking phentolamine mesylate.
Patients were asked to take one tablet 20 to 30 minutes before attempting coitus. One or more days after using the first tablet, the patients repeated the process with the second tablet.
Patients were advised not to consume alcohol prior to using the tablets and were told not to expect erection without sexual stimulation. […] Patients were also asked to report side effects.

Structure (SMILES) | Patients with improvement of impotentia erectionis [1] | Success in improving erectile ability [2]
CC[C@H](C)[C@@H]1NC(=O)[C@H](Cc2ccc(O)cc2)NC(=O)[C@@H](N)CSSC[C@@H](C(=O)N2CCC[C@H]2C(=O)N[C@@H](CC(C)C)C(=O)NCC(N)=O)NC(=O)[C@H](CC(N)=O)NC(=O)[C@H](CCC(N)=O)NC1=O [oxytocin] | 12 of the 16 | 
Cc1ccc(N(CC2=NCCN2)c2cccc(O)c2)cc1 [phentolamine mesylate] |  | significant success
